This is an account of results in patent US5565424A, “Superactive VIP antagonists” (Ramot - University Authority for Applied Research and …, priority 1994, dated 1996).

Non-standard residues stand in square brackets, D forms with d. Residues, ends and D or L forms follow the SMILES beside them. Nle = CCCC[C@H](N)C(=O)O

Experiment [1] has as its system dissociated mouse spinal cord cultures (neurons). Nature of the experiment: Neuronal survival in dissociated spinal cord cultures. The format is cell-based.
The test system of experiment [2] is cAMP (low affinity) VIP receptor on astroglia cells. Nature of the experiment: Displacement of 125I-VIP from astroglia cells. The conditions noted are these: central nervous system, FIGS. 2 and 3. (In general: Displacement assays read how much labelled ligand stays bound in the presence of the test substance.)
Experiment [3] deals with VIP-stimulated cAMP formation in astrocytes. Nature of the experiment: VIP-stimulated cAMP formation in cortical astrocyte cultures. The format is cell-based, rat. The conditions noted are these: 1 μM VIP, FIG. 2. The procedure: FIG. 2. VIP-stimulated cAMP formation was inhibited in the presence of the family of VIP antagonists. Cortical astrocyte cultures were incubated for 10 min with 1 μm VIP and cAMP accumulation was determined by radioimmunoassay (Gozes, et al., J. Pharmacol. & Exp. Therap., 257:959 (1991)). Increasing concentrations of the antagonists were placed in the astrocyte cultures 5 minutes prior to the addition of VIP. Astrocytes were maintained in 35 mm tissue culture dishes with 0.3 mg protein per dish. Each value is the mean of 8-10 determinations from 4 experiments. […] The error bar is the SEM.
In view of the foregoing, astroglia cells were utilized to compare the effects the VIP antagonists of the present invention have on VIP-stimulated cAMP formation. For cAMP determinations, the general protocols involve either the measurement of adenylate cyclase activity or, the use of radioimmunoassays for cAMP which utilize a cAMP determination kit from NEN (New England Nuclear, Boston, Mass.)36 previously described by Gozes, et al. (J. Pharmacol. Exp. Therap., 257:959 (1991)). An HCl (0.05M) extract neutralizecl with 0.5M NaOH may be utilized for the tests.
Rat astrocytes were maintained in cell culture as described above. The accumulation of cAMP was measured by radio-immunoassay (NEN kit, New England Nuclear) from cold trichloro acetic acid extracts (Evans et al., supra, 1984). […]
Background: Changes in cAMP serve as a functional read-out for many G protein-coupled receptors.

The subject of experiment [4] is non-small cell lung cancer (NSCLC) cell lines. Kind of experiment: NSCLC colony formation / cell growth, statements across cell lines.
In experiment [5] the test system is NCI-H727. The conditions noted are these: for NSCLC colony formation (colonies): NCI-H727, 1 μM addition, control 35.2 ± 2.3.
Experiment [6] relates to NCI-H226. The conditions noted are these: for NSCLC colony formation (colonies): NCI-H226, 1 μM addition, control 43.1 ± 5.7.
For experiment [7], the system named is NCI-H1299. The conditions noted are these: for NSCLC colony formation (colonies): NCI-H1299, 1 μM addition, control 29 ± 3.1.
Experiment [8] has as its system Sprague-Dawley rat pups, locomotive activity rhythm. Nature of the experiment: Circadian motor activity rhythms after chronic injection. In kind it is in vivo. The conditions noted are these: 5 μg/day subcutaneous, 28 days, newborn rat pups. As to the method: FIGS. 4(A-J). VIP antagonism disturbed the biological clock via a cAMP-mediated mechanism. Newborn rat pups (Sprague-Dawley, locally bread, Yoxheam, Israel) were chronically injected with VIP analogues (5 μg of each analogue/50 μl/day, subcutaneous), for 28 consecutive days. The vehicle of injection was either 0.01M acetic acid or 15% dimethylsulfoxide (for the lipophilic peptides). On day 21, the animals were placed each one in a separate cage and their locomotive activity was continuously measured. The pattern of locomotive activity was measured using an animal monitoring system with an infrared detector for 7 days (A, C, E, G, I). The spectral periods of rhythm in the activity data was detected by a special statistical method because of the short computer sampling period. […]
Animals were each placed in a separate cage and motor activity was continuously recorded for 6-9 days, using an animal monitoring system with an infrared detector. Spectral analysis of motor activity rhythms is then determined by the fitting of different cosine curves to the activity data (see, Mattes, et al., Chronobiology Int'l, 8:460 (1991)).

For experiment [9], the system named is neuroblastoma (NMB) cells. Kind of experiment: Neuroblastoma (NMB) cell division by cell counts. In kind it is cell-based, human. The procedure: FIG. 5. […] Neuroblastoma (NMB) cells have been grown in culture using RPMI-1640 medium supplemented with 10% fetal calf serum and gentamicin (100 μl of 40 mg/ml stock solution per 100 mL medium) in a humidified atmosphere of 5% CO2, 95% air. Cells were harvested with Puck's saline containing 0.25% trypsin and 0.02M EDTA every four days, centrifuged and seeded in 60 mm diameter tissue culture dishes (CORNING) at a density of 0.6-0.7×10^6 cells per dish.
For mitogenic assays, human NM cells were seeded in 35 mm diameter tissue culture dishes (CORNING) at a density of 0.2×10^6 cells per dish in RPMI-1640 medium plus 10% fetal calf serum. […] Cell counts were performed with a hemocytometer, using trypan blue staining for viability, on the second day (24 hours) after the VIP treatment. Results shown on the graph are cell/dish×1000. Error bars represent the standard error. Three-six replicates were counted for each data point and experiments were repeated three independent times.

Experiment [10] concerns VIP receptors on neuroblastoma (NMB) cells. Nature of the experiment: VIP binding and displacement on intact neuroblastoma (NMB) cells. Set-up: species or system human. As to the method:
Alternatively, the VIP was iodinated according to the procedure described by Werner, et al. (Biochem. Biophys. Res. Commun., 133:228-232 (1985)). […] Experiments were repeated at least three times, each containing triplicates, error bars represent the standard error. Cells were grown for 24 hours (circles) and 48 hours (triangles). […] The binding parameters were determined by ACCUFIT program, Lundon-2 competition analysis (LUNDON software Inc., Chargin Falls, Ohio, U.S.A.). […] The calculated Bmax was 6×10^-14 moles/mg and 1.5×10^-14 moles/mg for cells grown for 24 hours as compared to cells grown for 48 hours, respectively.

In experiment [11] the test system is c-fos mRNA in NCIH810 cells. Nature of the experiment: c-fos mRNA assay. The format is cell-based. As to the method:
In addition, the ability of VIP and the S-hybrid VIP antagonist to stimulate c-fos mRNA was examined; c-fos mRNA is a marker for cancer cell proliferation. […] This is true regardless of whether the VIP antagonist is co-administered with VIP or added by itself (See, Table IV, infra).
^a NCIH810 cells were treated with the peptide and the cfos mRNA
determined after 1 hour.
For the c-fos experiments, SCLC cells were cultured with SIT medium containing 0.5% fetal bovine serum. After 4 hours, the cells were treated with stimuli such as 10 nM BN for 60 min. Total RNA was isolated using the guanidinium isothiocyanate (GIT) method. Ten μg of denatured RNA was separated in a 0.66M formaldehyde 1% agarose gel as previously described. The gel was treated with ethidium bromide tp assess RNA integrity. The RNA was blotted onto a nitrocellulose membrane overnight and the membrane hybridized with a c-fos probe labelled with ^32 P-dCTP using a Bethesda Research Laboratories random priming kit. The membrane was exposed to Kodax XAR-2 film at […] for 1 day and the autoradiogram developed. The autoradiogram were analyzed using a Molecular Dynamics densitometer.

The test system of experiment [12] is neuroblastoma (NMB) cells. Kind of experiment: Thymidine incorporation into neuroblastoma (NMB) cells. In kind it is cell-based, human. The conditions noted are these: 24 hours incubation, one day after seeding; read-out: EC50, stimulation of thymidine incorporation into NMB cells. A general note: Dividing cells build labelled thymidine or BrdU into new DNA.

Regarding `CCCC[C@H](NC(=O)[C@H](CCC(N)=O)NC(=O)[C@H](CCCCN)NC(=O)[C@H](CCCNC(=N)N)NC(=O)[C@H](CC(C)C)NC(=O)[C@H](CCCNC(=N)N)NC(=O)[C@@H](NC(=O)[C@H](Cc1ccc(O)cc1)NC(=O)[C@H](CC(N)=O)NC(=O)[C@H](CC(=O)O)NC(=O)[C@@H](NC(=O)[C@H](Cc1ccc(O)cc1)NC(=O)[C@@H]1CCCN1C(=O)[C@H](CCCNC(=N)N)NC(=O)[C@H](CCCNC(=N)N)NC(=O)[C@@H]1CCCN1C(=O)[C@@H](N)CCCCN)[C@@H](C)O)[C@@H](C)O)C(=O)N[C@@H](C)C(=O)N[C@H](C(=O)N[C@@H](CCCCN)C(=O)N[C@@H](CCCCN)C(=O)N[C@@H](Cc1ccc(O)cc1)C(=O)N[C@@H](CC(C)C)C(=O)N[C@@H](CC(N)=O)C(=O)N[C@@H](CO)C(=O)N[C@H](C(=O)N[C@@H](CC(C)C)C(=O)N[C@@H](CC(N)=O)C(N)=O)[C@@H](C)CC)C(C)C` [NL-hybrid VIP antagonist] (H-KPRRPYTDNYTRLRKQ[Nle]AVKKYLNSILN-NH2), the “fold more potent than the hybrid VIP antagonist at inducing neuronal cell death” value in experiment [1] is recorded as 10 fold. The “affinity for the VIP-neuronal survival associated receptor (in words)” value in experiment [1] (central nervous system, FIG. 1) is “has an affinity for both”. In [1] (spinal cord cultures, FIG. 1), the “concentration of maximal effect on neuronal cell death” value is listed as 10^-10 M. Also, the “affinity for the cAMP (low affinity) VIP receptor (in words)” value in experiment [2] is “has an affinity for both”. Moreover, the “inhibition of VIP-induced cAMP formation (in words)” value in experiment [3] was “effectively inhibits VIP-induced cAMP formation”. For the same molecule, in experiment [4] (two out of three NSCLC cell lines), the “potency relative to the hybrid antagonist in inhibiting tumor cell growth” value is on record as “ten-fold more potent”. The “inhibition of cell growth” value in experiment [5] is listed as 88%; in experiment [6], 92%; in [7] it was 100%. In addition, the “NSCLC colony formation (colonies)” value was 4.2 ± 3.1 in [5], 3.5 ± 2.5 in [6] and 0 in experiment [7]. Moreover, the “effect on 24 hours periodicity of activity rhythm” value in [8] is on record as “abolished this 24 hours periodicity”. For the same molecule, the “overall activity of the animals” value in [8] is given as “overall increase in the activity”.
For `CC[C@H](C)[C@H](NC(=O)[C@H](CO)NC(=O)[C@H](CC(N)=O)NC(=O)[C@H](CC(C)C)NC(=O)[C@H](Cc1ccc(O)cc1)NC(=O)[C@H](CCCCN)NC(=O)[C@H](CCCCN)NC(=O)[C@@H](NC(=O)[C@H](C)NC(=O)[C@H](CCSC)NC(=O)[C@H](CCC(N)=O)NC(=O)[C@H](CCCCN)NC(=O)[C@H](CCCNC(=N)N)NC(=O)[C@H](CC(C)C)NC(=O)[C@H](CCCNC(=N)N)NC(=O)[C@@H](NC(=O)[C@H](Cc1ccc(O)cc1)NC(=O)[C@H](CC(N)=O)NC(=O)[C@H](CC(=O)O)NC(=O)[C@@H](NC(=O)[C@H](Cc1ccccc1)NC(=O)[C@@H](NC(=O)[C@H](C)NC(=O)[C@H](CC(=O)O)NC(=O)[C@H](CO)NC(=O)[C@@H](N)Cc1c[nH]cn1)C(C)C)[C@@H](C)O)[C@@H](C)O)C(C)C)C(=O)N[C@@H](CC(C)C)C(=O)N[C@@H](CC(N)=O)C(N)=O` [VIP, Vasoactive intestinal polypeptide], the EC50 in [9] (24 hour VIP treatment, added one day after seeding, read-out: EC50, stimulation of NMB cell division by cell counts) was 500 nM; in experiment [12] it was 500 nM. Further, the “mitosis when added 48 hours after plating” value in [9] (additional 24 hours incubation) is listed as “did not stimulate mitosis”. Further, in experiment [9] (cell counts and thymidine incorporation, decreased thereafter), the “concentration at peak of mitogenic activity” value came out at 1 µM. Further, the “fold higher affinity in younger cells (24 hrs) compared with older cells (48 hrs)” value in experiment [10] was “about 10 fold”. In addition, the “c-fos mRNA” value in [11] (10 nM, NCIH810 cells, after 1 hour, NONE = 1.0) is listed as 5.6. The “effect on c-fos mRNA (in words)” value in experiment [11] (antagonist co-administered with VIP or added by itself) is “stimulates c-los mRNA”. For the same molecule, the “stimulation of NSCLC colony formation in agar” value in experiment [4] (index of cell growth) is 2-3 fold. Besides, the “NSCLC colony formation (colonies)” value was determined as 115 ± 22.7 in experiment [5], 87.4 ± 4.8 in [6] and 55.8 ± 19.8 in experiment [7].
